# Results published in the supplement of paper PMC12463676, “Small-molecule dissolution of stress granules by redox modulation benefits ALS models” (Nature Chemical Biology, 2025).
# Tests used:
# lipoamide = compound: NC(=O)CCCCC1CCSS1 [lipoamide]; assay: thermal stability z-score vs DMSO; higher = more thermally stabilized by treatment; details: HeLa, lipoamide concentration 100 µM
# Experimental: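 Cellular thermal proteome profiling in HeLa cells. Cells were treated with 100 µM lipoamide for 1 h, with or without 1 mM arsenate for a further 1 h, then heated to ten temperatures (37-66.3 °C), and soluble protein was quantified by TMT mass spectrometry relative to 0.1% DMSO controls. The thermal stability score (sum of log2 fold changes minus the abundance score) was transformed to a z-score; mean of n = 3 experiments.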
# potassium arsenate = compound: O=[As]([O-])(O)O.[K+] [potassium arsenate]; assay: as above; details: HeLa; arsenate concentration 1 mM
# Experimental: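 Cellular thermal proteome profiling in HeLa cells treated with 1 mM arsenate for 1 h (DMSO pretreatment), heated to ten temperatures (37-66.3 °C). Soluble protein was quantified by TMT mass spectrometry relative to DMSO controls; the thermal stability score was transformed to a z-score; mean of n = 3 experiments.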
# [1] = arsenate co-treatment: 1 mM arsenate 1 h
# 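Further: each temperature applied for 3 min, abundance score taken as mean log2 fold change at the two lowest temperatures, z-score obtained by mean subtraction and division by SD.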
# Chain of UniProt O14893 (O14893 whole entry): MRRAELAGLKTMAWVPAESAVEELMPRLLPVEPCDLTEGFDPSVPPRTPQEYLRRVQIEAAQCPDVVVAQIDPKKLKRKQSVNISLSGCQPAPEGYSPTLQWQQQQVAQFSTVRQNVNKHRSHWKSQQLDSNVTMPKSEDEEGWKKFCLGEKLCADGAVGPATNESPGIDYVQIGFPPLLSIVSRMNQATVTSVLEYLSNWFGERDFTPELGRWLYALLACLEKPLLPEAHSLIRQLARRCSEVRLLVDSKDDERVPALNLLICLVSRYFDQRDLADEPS
# Chain of UniProt Q8WXI9 (Q8WXI9 whole entry): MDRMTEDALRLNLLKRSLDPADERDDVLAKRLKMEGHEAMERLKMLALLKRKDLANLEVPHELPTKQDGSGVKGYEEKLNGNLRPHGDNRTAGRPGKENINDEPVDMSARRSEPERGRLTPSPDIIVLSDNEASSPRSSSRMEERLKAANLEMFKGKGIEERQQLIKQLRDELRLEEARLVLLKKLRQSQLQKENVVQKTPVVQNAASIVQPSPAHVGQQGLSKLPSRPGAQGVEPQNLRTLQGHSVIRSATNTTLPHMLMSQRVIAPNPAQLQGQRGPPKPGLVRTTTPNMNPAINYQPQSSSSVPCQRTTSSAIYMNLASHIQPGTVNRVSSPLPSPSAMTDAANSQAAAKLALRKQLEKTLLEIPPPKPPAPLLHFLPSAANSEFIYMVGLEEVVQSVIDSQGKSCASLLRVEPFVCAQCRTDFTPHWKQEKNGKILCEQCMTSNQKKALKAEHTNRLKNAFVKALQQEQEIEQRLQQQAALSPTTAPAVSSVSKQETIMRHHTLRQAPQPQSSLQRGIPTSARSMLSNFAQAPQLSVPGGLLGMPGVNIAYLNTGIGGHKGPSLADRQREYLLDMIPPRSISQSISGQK
# Chain of UniProt Q8WXD5 (Q8WXD5 whole entry): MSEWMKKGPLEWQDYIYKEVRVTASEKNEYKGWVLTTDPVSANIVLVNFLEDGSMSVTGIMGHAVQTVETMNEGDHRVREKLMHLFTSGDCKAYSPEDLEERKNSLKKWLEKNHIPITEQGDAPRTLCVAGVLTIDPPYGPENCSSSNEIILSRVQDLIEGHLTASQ
# Chain of UniProt Q9BQS8 (Q9BQS8 whole entry): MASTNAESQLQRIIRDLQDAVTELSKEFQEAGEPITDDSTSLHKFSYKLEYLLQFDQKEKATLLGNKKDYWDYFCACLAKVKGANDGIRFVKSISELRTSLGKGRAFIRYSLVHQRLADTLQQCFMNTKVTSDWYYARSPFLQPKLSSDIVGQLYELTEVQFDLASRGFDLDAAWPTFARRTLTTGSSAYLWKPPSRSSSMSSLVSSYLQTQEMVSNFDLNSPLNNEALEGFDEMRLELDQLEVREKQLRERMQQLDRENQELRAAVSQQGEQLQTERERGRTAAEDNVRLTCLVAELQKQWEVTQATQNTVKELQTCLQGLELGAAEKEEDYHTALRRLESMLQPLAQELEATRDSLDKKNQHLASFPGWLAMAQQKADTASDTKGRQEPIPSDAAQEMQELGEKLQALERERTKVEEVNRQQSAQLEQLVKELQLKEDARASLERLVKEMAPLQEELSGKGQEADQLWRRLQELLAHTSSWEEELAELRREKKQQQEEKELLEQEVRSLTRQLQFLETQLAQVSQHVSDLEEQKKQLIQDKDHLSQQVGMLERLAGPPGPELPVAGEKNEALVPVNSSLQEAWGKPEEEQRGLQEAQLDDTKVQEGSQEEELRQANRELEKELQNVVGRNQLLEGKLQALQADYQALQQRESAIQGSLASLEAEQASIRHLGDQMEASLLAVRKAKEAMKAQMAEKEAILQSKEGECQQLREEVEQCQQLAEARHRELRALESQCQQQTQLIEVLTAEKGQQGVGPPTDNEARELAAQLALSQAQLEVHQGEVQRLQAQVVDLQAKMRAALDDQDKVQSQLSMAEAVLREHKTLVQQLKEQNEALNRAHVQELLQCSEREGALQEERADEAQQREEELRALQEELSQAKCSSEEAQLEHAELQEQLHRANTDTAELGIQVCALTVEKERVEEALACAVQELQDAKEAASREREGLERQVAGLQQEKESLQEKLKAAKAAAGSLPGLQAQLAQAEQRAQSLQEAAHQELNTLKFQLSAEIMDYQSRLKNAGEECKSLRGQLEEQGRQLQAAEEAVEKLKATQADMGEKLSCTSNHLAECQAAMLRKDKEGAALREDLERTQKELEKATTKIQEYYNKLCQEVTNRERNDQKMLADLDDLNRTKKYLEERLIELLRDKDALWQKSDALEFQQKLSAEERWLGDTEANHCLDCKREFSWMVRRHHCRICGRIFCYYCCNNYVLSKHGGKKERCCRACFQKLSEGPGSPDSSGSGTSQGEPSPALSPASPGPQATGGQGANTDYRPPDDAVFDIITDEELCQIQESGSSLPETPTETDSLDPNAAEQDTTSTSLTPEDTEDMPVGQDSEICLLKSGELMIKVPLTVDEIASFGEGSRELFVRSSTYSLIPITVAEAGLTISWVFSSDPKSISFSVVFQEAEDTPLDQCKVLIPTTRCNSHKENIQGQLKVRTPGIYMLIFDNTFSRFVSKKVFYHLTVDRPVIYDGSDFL
# Chain of UniProt P30047 (P30047 whole entry): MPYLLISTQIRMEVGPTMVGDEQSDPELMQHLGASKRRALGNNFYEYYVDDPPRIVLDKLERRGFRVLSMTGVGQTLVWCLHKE
# Chain of UniProt P23434 (P23434 whole entry): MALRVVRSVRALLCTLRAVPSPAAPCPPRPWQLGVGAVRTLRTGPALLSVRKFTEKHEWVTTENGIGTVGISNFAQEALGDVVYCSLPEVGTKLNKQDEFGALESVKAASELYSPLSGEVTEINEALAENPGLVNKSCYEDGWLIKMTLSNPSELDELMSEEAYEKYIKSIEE
# Chain of UniProt Q10472 (Q10472 whole entry): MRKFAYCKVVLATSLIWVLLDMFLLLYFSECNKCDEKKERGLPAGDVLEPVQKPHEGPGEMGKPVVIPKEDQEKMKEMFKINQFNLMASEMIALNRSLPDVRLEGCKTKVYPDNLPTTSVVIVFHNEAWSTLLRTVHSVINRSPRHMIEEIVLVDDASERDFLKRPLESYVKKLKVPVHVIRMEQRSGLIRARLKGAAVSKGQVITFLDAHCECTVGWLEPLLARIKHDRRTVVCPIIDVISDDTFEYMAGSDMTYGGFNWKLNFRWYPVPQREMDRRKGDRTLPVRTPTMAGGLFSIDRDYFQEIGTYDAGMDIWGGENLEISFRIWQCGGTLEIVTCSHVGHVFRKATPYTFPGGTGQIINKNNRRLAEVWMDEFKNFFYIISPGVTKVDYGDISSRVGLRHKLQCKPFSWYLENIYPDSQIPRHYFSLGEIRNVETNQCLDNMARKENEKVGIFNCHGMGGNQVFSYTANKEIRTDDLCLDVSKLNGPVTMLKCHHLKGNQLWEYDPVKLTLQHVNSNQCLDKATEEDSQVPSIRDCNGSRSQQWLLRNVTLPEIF
# Chain of UniProt O14976 (O14976 whole entry): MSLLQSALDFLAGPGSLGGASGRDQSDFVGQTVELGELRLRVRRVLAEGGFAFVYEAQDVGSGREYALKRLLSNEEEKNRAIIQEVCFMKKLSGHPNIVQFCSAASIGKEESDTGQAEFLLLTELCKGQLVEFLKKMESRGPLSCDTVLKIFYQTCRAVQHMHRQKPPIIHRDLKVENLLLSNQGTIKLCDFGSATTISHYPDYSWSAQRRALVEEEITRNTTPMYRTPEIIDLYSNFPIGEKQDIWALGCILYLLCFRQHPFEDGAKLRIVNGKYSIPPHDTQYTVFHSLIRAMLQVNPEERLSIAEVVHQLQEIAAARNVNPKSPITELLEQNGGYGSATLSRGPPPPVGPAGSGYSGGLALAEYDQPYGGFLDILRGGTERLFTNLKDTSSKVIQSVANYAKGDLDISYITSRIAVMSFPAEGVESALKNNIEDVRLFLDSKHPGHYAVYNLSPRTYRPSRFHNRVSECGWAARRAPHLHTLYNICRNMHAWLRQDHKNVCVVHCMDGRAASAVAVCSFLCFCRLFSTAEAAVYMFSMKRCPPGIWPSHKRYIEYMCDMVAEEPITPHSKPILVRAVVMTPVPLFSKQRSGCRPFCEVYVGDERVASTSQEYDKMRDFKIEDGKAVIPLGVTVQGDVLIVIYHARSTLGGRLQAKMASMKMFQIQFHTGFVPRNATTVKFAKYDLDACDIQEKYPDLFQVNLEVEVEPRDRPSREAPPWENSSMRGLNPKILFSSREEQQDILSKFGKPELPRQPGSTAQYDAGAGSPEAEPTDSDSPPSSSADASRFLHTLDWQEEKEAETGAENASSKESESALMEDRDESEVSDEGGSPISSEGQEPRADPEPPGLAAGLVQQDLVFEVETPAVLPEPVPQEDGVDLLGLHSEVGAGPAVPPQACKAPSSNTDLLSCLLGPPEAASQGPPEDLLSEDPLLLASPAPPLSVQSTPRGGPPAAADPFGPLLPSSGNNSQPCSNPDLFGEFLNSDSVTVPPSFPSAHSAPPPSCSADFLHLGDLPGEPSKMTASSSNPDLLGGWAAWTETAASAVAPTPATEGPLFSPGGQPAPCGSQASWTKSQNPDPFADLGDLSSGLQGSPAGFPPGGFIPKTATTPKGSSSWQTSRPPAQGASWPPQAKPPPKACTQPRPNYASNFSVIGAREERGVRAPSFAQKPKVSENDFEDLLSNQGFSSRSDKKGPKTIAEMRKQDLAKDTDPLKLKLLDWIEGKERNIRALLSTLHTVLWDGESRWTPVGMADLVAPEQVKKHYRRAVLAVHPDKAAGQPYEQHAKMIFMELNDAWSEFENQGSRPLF
# Chain of UniProt P48507 (P48507 whole entry): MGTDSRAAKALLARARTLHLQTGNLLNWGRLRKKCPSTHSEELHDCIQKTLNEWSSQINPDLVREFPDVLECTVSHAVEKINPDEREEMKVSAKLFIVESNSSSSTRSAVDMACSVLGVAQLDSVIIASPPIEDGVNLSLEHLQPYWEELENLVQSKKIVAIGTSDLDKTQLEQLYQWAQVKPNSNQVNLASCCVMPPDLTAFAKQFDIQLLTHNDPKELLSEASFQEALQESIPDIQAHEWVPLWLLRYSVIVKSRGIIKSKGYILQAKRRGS
Target,thermal stability z-score (lipoamide; [1]),thermal stability z-score (lipoamide; arsenate co-treatment: none),thermal stability z-score (potassium arsenate)
FXR1 (UniProt P51114),0.487,0.714,0.794
FXR2 (UniProt P51116),0.0778,0.0347,0.783
FYCO1 (UniProt Q9BQS8),-0.321,-0.354,-0.152
FYN (UniProt P06241),0.0671,-0.0839,-1.04
FZD2 (UniProt Q14332),-1.45,-1.01,0.0158
FZD6 (UniProt O60353),-1.56,-1.7,0.376
G3BP1 (UniProt Q13283),0.523,0.664,0.753
G3BP2 (UniProt Q9UN86),-0.0281,-0.411,0.561
G3V3G9 (UniProt P40855),-0.319,-0.13,-0.695
G6PD (UniProt P11413),0.218,0.206,0.535
GAA (UniProt P10253),-0.154,0.311,-0.00416
GAB1 (UniProt Q13480),-0.149,0.0158,-0.0474
GABARAP (UniProt O95166),-0.21,-0.417,-0.223
GABARAPL1 (UniProt Q9H0R8),-1.22,-2.02,-0.849
GABARAPL2 (UniProt P60520),0.14,-0.266,0.209
GABPA (UniProt Q06546),-0.201,-0.185,4.54
GABPB1 (UniProt Q06547),0.17,0.498,5.01
GADD45GIP1 (UniProt Q8TAE8),0.954,0.379,0.432
GAK (UniProt O14976),0.338,-0.0197,0.475
GAL (UniProt P22466),0.135,-0.122,-0.0332
GALE (UniProt Q14376),0.0359,-0.161,-2.31
GALK1 (UniProt P51570),-0.559,-0.412,-0.534
GALK2 (UniProt Q01415),0.547,-0.155,-0.778
GALNS (UniProt P34059),0.346,0.41,0.274

Target,thermal stability z-score (lipoamide; [1]),thermal stability z-score (lipoamide; arsenate co-treatment: none),thermal stability z-score (potassium arsenate)
GALNT1 (UniProt Q10472),-0.568,-0.256,-0.187
GALNT2 (UniProt Q10471),-1.83,-1.16,0.25
GALNT6 (UniProt Q8NCL4),-0.515,-0.683,-0.396
GALNT7 (UniProt Q86SF2),0.205,-0.0334,0.187
GALNT10 (UniProt Q86SR1),-0.462,0.0888,0.557
GALT (UniProt P07902),-0.362,-0.325,0.174
GAMT (UniProt Q14353),-0.374,0.506,-0.0271
GAN (UniProt Q9H2C0),0.0625,-0.31,-0.167
GANAB (UniProt Q14697),-3.91,-3.13,0.696
GAPDH (UniProt P04406),-1.1,-0.00491,-1.5
GAPVD1 (UniProt Q14C86),-0.367,-0.206,0.0188
GAR1 (UniProt Q9NY12),-0.515,-0.354,-0.376
GARS (UniProt P41250),-0.224,-0.223,-0.919
GART (UniProt P22102),0.221,-0.0107,-0.419
GATAD2A (UniProt Q86YP4),-0.0451,-0.00448,-0.412
GATAD2B (UniProt Q8WXI9),0.511,0.315,-0.539
GATB (UniProt O75879),0.0276,0.115,0.0266
GATSL2 (UniProt A6NHX0),0.724,-1.44,-0.242
GBA (UniProt P04062),-0.361,-0.352,0.33
GBAS (UniProt O75323),0.0991,0.0331,-0.187
GBE1 (UniProt Q04446),-0.395,0.344,-0.956
GBF1 (UniProt Q92538),-0.598,-0.0839,0.452
GCAT (UniProt O75600),-0.752,-1.04,1.38
GCC1 (UniProt Q96CN9),-0.192,-0.169,-0.179

Target,thermal stability z-score (lipoamide; [1]),thermal stability z-score (lipoamide; arsenate co-treatment: none),thermal stability z-score (potassium arsenate)
GCC2 (UniProt Q8IWJ2),-0.88,-0.098,0.827
GCDH (UniProt Q92947),0.711,0.198,-0.202
GCFC2 (UniProt P16383),0.317,0.441,-0.00138
GCHFR (UniProt P30047),-0.485,-0.374,0.0269
GCLC (UniProt P48506),0.874,0.402,1.56
GCLM (UniProt P48507),1.62,0.394,2.05
GCN1 (UniProt Q92616),-0.244,0.292,0.522
GCNT2 (UniProt Q8N0V5),0.367,-0.158,-0.125
GCSH (UniProt P23434),0.134,-0.126,-1.45
GDA (UniProt Q9Y2T3),0.244,0.292,0.0168
GDAP1 (UniProt Q8TB36),-0.141,-0.313,-0.354
GDAP2 (UniProt Q9NXN4),-0.0509,-0.305,-0.255
GDE1 (UniProt Q9NZC3),-0.631,-0.947,-1.38
GDI1 (UniProt P31150),0.00835,-0.013,-0.353
GDI2 (UniProt P50395),0.452,0.275,-0.47
GDPD1 (UniProt Q8N9F7),-0.226,-0.624,-1.05
GDPD3 (UniProt Q7L5L3),0.187,-0.422,0.114
GDPGP1 (UniProt Q6ZNW5),-0.332,-0.511,-0.786
GEMIN2 (UniProt O14893),-0.139,-0.0485,-0.345
GEMIN4 (UniProt P57678),-0.347,-0.228,-0.0793
GEMIN5 (UniProt Q8TEQ6),-0.411,-0.402,-0.93
GEMIN6 (UniProt Q8WXD5),0.0364,-0.18,-0.129
GEMIN8 (UniProt Q9NWZ8),0.0342,-0.0734,-0.0475
